In experiment [1] the target is anthranilic acid synthetase encoded by pTrp 13-2 (Corynebacterium glutamicum, UniProt P06557). In words: Inhibition by tryptophan of the anthranilic acid synthetase encoded by plasmid pTrp 13-2. The class given is biochemical. How it is done:
(§1) The thus obtained transformants have the plasmid harboring a gene coding for the anthranilic acid synthetase insensitie to tryptophan. The anthranilic acid synthetase encoded by one of the plasmids, pTrp 13-2 was inhibited 50% with 0.25 mM tryptophan, which was 40-fold higher than the concentration of tryptophan (0.006 mM) needed to inhibit 50% the anthranilic acid synthetase encoded by pTrp 9-1.

Experiment [2] addresses T1, anthranilic acid synthetase encoded by pTrp 9-1 (Corynebacterium glutamicum, UniProt P06557).
T1 construct: made in house; host or cells: Corynebacterium glutamicum LA 105
In words: Inhibition by tryptophan of the anthranilic acid synthetase encoded by plasmid pTrp 9-1. The class given is biochemical, Corynebacterium glutamicum ATCC 13032. The procedure:
as §1

Chain of anthranilic acid synthetase encoded by pTrp 13-2 (P06557 whole entry): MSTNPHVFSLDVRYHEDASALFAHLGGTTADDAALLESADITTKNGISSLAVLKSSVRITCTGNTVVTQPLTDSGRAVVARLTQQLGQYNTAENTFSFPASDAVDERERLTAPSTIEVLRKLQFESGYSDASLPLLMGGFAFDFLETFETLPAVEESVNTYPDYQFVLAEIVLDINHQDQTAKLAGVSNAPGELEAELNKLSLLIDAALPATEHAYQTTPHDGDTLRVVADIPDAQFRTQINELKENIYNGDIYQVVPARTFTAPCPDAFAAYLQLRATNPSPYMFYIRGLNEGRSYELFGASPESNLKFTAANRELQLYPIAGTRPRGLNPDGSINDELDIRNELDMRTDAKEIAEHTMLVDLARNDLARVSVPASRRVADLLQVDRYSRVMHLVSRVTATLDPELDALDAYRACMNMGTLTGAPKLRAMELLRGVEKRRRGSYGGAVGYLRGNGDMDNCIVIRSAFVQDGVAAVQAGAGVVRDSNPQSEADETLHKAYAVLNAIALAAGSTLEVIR
Chain of anthranilic acid synthetase encoded by pTrp 13-2 (P06558 whole entry, further chain): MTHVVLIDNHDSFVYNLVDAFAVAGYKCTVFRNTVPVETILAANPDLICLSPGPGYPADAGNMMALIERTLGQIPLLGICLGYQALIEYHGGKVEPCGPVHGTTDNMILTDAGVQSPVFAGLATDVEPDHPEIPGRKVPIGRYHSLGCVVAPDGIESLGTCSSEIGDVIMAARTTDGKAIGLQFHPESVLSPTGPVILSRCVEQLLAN
T1 sequence (P06557 whole entry): as the sequence (P06557 whole entry) above
T1 sequence (P06558 whole entry, further chain): as the sequence (P06558 whole entry, further chain) above

Turning to `N[C@@H](Cc1c[nH]c2ccccc12)C(=O)O` [tryptophan], in experiment [1] (0.25 mM versus 0.006 mM), the “fold higher 50% inhibitory tryptophan concentration, pTrp 13-2 enzyme versus pTrp 9-1 enzyme” value was 40 fold. The IC50 in experiment [1] (read-out: concentration of tryptophan inhibiting the anthranilic acid synthetase 50%, enzyme encoded by tryptophan-analog resistant plasmid pTrp 13-2) was found to be 250 µM; in experiment [2], 6 µM.

The values are drawn from patent US4874698A, “Process for producing tryptophan” (Kyowa Hakko Kogyo Co., Ltd., priority 1983, dated 1989).
